Laboratory results as given in ChEMBL document CHEMBL4393730, “Thiazolidinedione and thiazole derivatives potentiate norfloxacin activity against NorA efflux pump over expression in Staphylococcus aureus 1199B strains” (Bioorg Med Chem, 2019).

Tests used:
Staphylococcus aureus [1] = experiment: Antibacterial activity against wild type Staphylococcus aureus 1199 devoid of NorA efflux pump measured after 24 hrs by broth microdilution method; format: functional; details: Staphylococcus aureus, 1199, 24 h
Staphylococcus aureus [2] = experiment: Antibacterial activity against wild type Staphylococcus aureus 1199 devoid of norA efflux pump assessed as norfloxacin MIC measured after 24 hrs by broth microdilution method (reference value: 64 +/- 1 microg/ml); format: functional; details: Staphylococcus aureus, 1199, 24 h
[3] = target: T1, Quinolone resistance protein NorA (Staphylococcus aureus) (UniProt P0A0J7); experiment: Inhibition of NorA efflux pump in multidrug resistant Staphylococcus aureus 1199B mutant assessed as reduction in norfloxacin MIC measured after 24 hrs by broth microdilution method relative to norfloxacin
T1 sequence (whole entry): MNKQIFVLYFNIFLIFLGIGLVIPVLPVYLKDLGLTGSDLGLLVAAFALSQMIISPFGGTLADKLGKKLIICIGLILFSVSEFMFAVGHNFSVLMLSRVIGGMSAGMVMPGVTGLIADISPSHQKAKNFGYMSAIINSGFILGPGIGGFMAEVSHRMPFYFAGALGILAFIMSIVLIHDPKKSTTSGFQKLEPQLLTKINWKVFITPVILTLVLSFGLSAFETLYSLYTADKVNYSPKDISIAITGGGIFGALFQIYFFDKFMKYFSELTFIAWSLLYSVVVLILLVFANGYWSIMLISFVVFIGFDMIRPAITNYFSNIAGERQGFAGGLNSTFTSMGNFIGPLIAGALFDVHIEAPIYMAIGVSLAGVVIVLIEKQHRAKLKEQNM

Staphylococcus aureus [4] = experiment: Antibacterial activity against wild type Staphylococcus aureus 1199 devoid of norA efflux pump assessed as reduction in norfloxacin MIC measured after 24 hrs by broth microdilution method relative to norfloxacin; format: functional
[5] = target: T1, Quinolone resistance protein NorA (Staphylococcus aureus); experiment: Inhibition of NorA efflux pump in multidrug resistant Staphylococcus aureus 1199B mutant assessed as norfloxacin MIC measured after 24 hrs by broth microdilution method (reference value: 256 +/- 1 microg/ml)
[6] = Cytotoxicity against mouse L929 cells assessed as cell growth inhibition at 50 ug/ml measured after 72 hrs by MTT method relative to control; format: cell-based; details: read-out: GI
Staphylococcus aureus [7] = experiment: Antibacterial activity against multidrug resistant Staphylococcus aureus 1199B mutant strain carrying NorA efflux pump assessed as growth inhibition measured after 24 hrs by broth microdilution method; format: functional

Row | Compound | MIC (Staphylococcus aureus [1]) | MIC (Staphylococcus aureus [2]) | fold change (FC) [3] | fold change (FC) (Staphylococcus aureus [4]) | MIC [5] | inhibition at 72 h, 50 ug/ml [6] | MIC (Staphylococcus aureus [7])
1 | COc1ccc(Br)cc1/C=N/Nc1nc(-c2ccc(Br)cc2)cs1 | > 1020 µg/mL | 16 µg/mL | 3 | 3 | 64 µg/mL | 17.3% | > 1020 µg/mL
2 | COc1ccc(Br)cc1/C=N/Nc1nc(-c2ccccc2)cs1 | > 1020 µg/mL | 0.5 µg/mL | 3 | 3 | 50.8 µg/mL | 24.4% | > 1020 µg/mL
3 | COc1ccc(Br)cc1/C=N/Nc1nc(-c2ccc(F)cc2)cs1 | > 1020 µg/mL | 1020 µg/mL | – | – | 1020 µg/mL | 31.2% | > 1020 µg/mL
4 | COc1ccc(Br)cc1/C=N/Nc1nc(-c2ccc(-c3ccccc3)cc2)cs1 | > 1020 µg/mL | 1020 µg/mL | – | – | 1020 µg/mL | 15% | > 1020 µg/mL
5 | COc1ccc(Br)cc1/C=N/Nc1nc(-c2ccc([N+](=O)[O-])cc2)cs1 | > 1020 µg/mL | 5 µg/mL | – | – | 128 µg/mL | 39.9% | > 1020 µg/mL
6 | COc1ccc(Br)cc1/C=N/Nc1nc(-c2ccc(Cl)cc2)cs1 | > 1020 µg/mL | 0.63 µg/mL | 3 | 3 | 40.3 µg/mL | 30.1% | > 1020 µg/mL
